Key:
[1] = tested on: murine closed head injury model (TBI); experiment: Rotarod vestibulomotor function after closed head injury; format: in vivo, mouse; settings: for Rotarod functional performance compared to vehicle: n = 11-12/group
Description: The murine closed head injury model used in this study was previously described. The closed head impact results in injury to selectively vulnerable neurons in cortex and hippocampus, and is associated with vestibulomotor deficits and long term neurocognitive deficits. Although animals do lose body weight, they rapidly regain spontaneous ventilation, righting reflex, and the ability to ambulate. Briefly, 12–14 week-old C57Bl/6 J male mice(Jackson Laboratories, Bar Harbor, ME) were used. The trachea was intubated after anesthesia induction with 4.6% isoflurane and the lungs were mechanically ventilated with 1.6% isoflurane in 30% O2/70% N2. Core body temperature was maintained at 37 °C through a rectal probe. To avoid basilar skull fracture, ear bars are not used. The animal was secured in a stereotactic device in a prone position on a molded acrylic cast with surgical tape across the shoulders. The intubation tube was also secured to the acrylic cast with tape. The acrylic cast is designed to allow the mouse to have 3 mm of space below the head to allow for acceleration/decelaration of the head in this position. The head was shaved and the scalp was incised to expose the skull and identify anatomical landmarks. A concave 3-mm metallic disc was adhered to the skull immediately caudal to bregma. A 2.0-mm diameter pneumatic impactor(Air-Power Inc., High Point, NC) was used to deliver a single midline impact to the center of the disc surface. The impactor was discharged at 6.8 ± 0.2 m/second with a head displacement of 3 mm. After impact, the animals were allowed to recover spontaneous ventilation and then the tracheas were extubated. Mice were allowed free access to food and water. Sham mice were treated identically except for the absence of impact. All mice were housed in the same facility.
CN-105(Ac-VSRRR-amide) was synthesized by Polypeptide Inc.(San Diego, CA) to a purity of >99%, and was delivered in sterile normal saline. […] Vehicle treated animals received intravenous injection of 100 μL of normal saline at the same time points. Animals were assigned to treatment group by a coded study identification number after injury using a paper randomization protocol. A block randomization scheme was used, so that an equal number of animals were randomized to each of the treatment groups during concurrent experiments.
An automated Rotarod(Ugo Basile, Comerio, Italy) was used to assess vestibulomotor function. On the day prior to injury, mice(n = 11–12 mice per group) underwent one training trial at an accelerating rotational speed(4–40 rpm) for at least 200 seconds and then three additional test trials with the same accelerating rotational speed. The average time to fall from the rotating cylinder in the test trials was recorded as baseline latency. Mice were tested on consecutive days post-injury and received three consecutive daily trials with accelerating rotational speed(inter-trial interval = 15 minutes)(n = 10–12 mice). The average latency to fall from the rod was recorded. Mice unable to grasp the rotating rod were given a latency value of 0 seconds.

[2] = tested on: microglia in hippocampus of TBI injured mice; experiment: F4/80 immunostained microglia, unbiased stereology; format: in vivo, mouse; settings: 0.05 mg/kg, 10 days post TBI
Procedure: To assess the effects of CN-105 on inflammation, neuronal injury and neuronal loss, immunohistochemical(IHC) staining was performed using the F4/80 antibody(a marker for mature microglia and macrophages; rat monoclonal, 1:10,000; Serotec, Raleigh, NC) and the Fluoro-Jade B stain(a marker of degenerating neurons; Histo-Chem Inc. Jefferson, AR) on days 10 and 1, respectively, after TBI. IHC was performed on separate cohorts of mice from those used in neurobehavioral tests. As previously described, mice were anesthetized, euthanized, and perfused with 30 ml phosphate-buffered saline(PBS) via transcardiac puncture. The brains were then immersed in buffered formalin overnight and saturated with 30% sucrose in buffer. Sagittal sections(40 μm) were sliced on a freezing microtome and collected in cryoprotectant solution. […]
Prior to quantification, all slides were coded and the analyst was blinded to avoid experimenter bias. For the F4/80 quantification the brains of 5 TBI treated and 6 TBI vehicle treated mice(4–6 sections/mouse) were counted. Every eighth section of the dorsal hippocampus, according to the Paxinos and Franklin(2001) mouse brain atlas, was analyzed using the Stereo Investigator 7.0 software(MicroBrightField, Williston, VT). […] An average of 12 counting frames was analyzed per section, the grid size was 450 × 450 μm, and the dissector dimensions were 80 × 80 × 10 μm. […]

[3] = mouse, in vivo, iv, 1.92 mg/kg
Procedure: Pharmacokinetic studies were conducted by Xenobiotic Laboratories(Plainsboro, NJ). Briefly, male CD-1 mice received a single IV bolus dose of [^14C] CN-105 52 μCi/mg(dose of 1.92 mg/kg, and approximately 100 μCi/kg) by tail vein injection. At 0.083, 0.5, 1, 6, 24, and 48 hours post-dose terminal blood samples were collected from 2 animals per timepoint and plasma was isolated for radiometric analysis.
To assess CNS penetration, quantitative whole body autoradiography(QWBA) analysis was performed and areas of interest in blood and brain were compared. The carcasses were frozen in a dry ice/hexane bath and embedded in low viscosity carboxymethylcellulose for sagittal, 30-μm thick sections of low viscosity carboxymethylcellulose-of mouse carcasses were sectioned. Pharmacokinetic data were generated by non-compartmental PK analysis of total radioactivity concentration vs. time profiles for tissues using WinNonlin(version 6.3, Pharsight Corporation, Mountain View, CA).
Selected tissues and areas of interest(AOI) were analyzed using QWBA. The tissues and AOI were analyzed within AIDA software using a region sampling tool. The following parameters were derived for individual subjects: maximum tissue and plasma concentration(Cmax), time of Cmax(tmax), area under the tissue concentration versus time curve from time zero to the last quantifiable tissue concentration(AUC0-t), area under the tissue concentration versus time curve from time zero to 4 hours(AUC0-4), and the apparent terminal half-life(t½). AUC0-4 was calculated using the linear trapezoidal rule. Results for AOIs are expressed in nanogram equivalents of(^14C) CN-105 per gram of tissue(ng equv./g) and were calculated as follows: ng equiv./g is equal to nCi per gram of tissue per nCi/ng of(^14C) CN-105.

Ac-VSRRR-amide [CN-105]
Rotarod functional performance compared to vehicle ([1]; 0.0125 mg/kg iv 2 h after TBI, p = 0.267): did not show robust improvement | Rotarod functional performance compared to vehicle ([1]; 0.05 mg/kg iv 2 h after TBI, p = 0.011): improved functional performance | Rotarod latency compared to vehicle ([1]; 0.05 mg/kg iv 4 hours post-injury): significant and durable improvement in Rotarod latency | Rotarod functional performance compared to vehicle ([1]; 0.2 mg/kg iv 2 h after TBI, p = 0.023): improved functional performance | Rotarod functional performance compared to vehicle ([1]; 0.8 mg/kg iv 2 h after TBI, p = 0.009): improved functional performance | lowest effective dose resulting in improved functional performance ([1]; iv 2 h after TBI, Rotarod): 0.05 mg/kg | effect of pretreatment on vestibulomotor and cognitive function ([1]; pretreatment 30 minutes prior to TBI, data not shown): no additional effects on vestibulomotor and cognitive function | density of F4/80 microglia in dorsal hippocampus compared to vehicle ([2]; 5 treated and 6 vehicle mice, p = 0.0002): significant decrease in density of microglia | microglia morphology ([2]; hippocampus): almost exclusively small ramified microglia | initial plasma half-life [3]: 29 min | tmax in serum [3]: 5 min | tmax in the brain [3]: 30 min

— PMC5399447, “Neuroprotective pentapeptide CN-105 is associated with reduced sterile inflammation and improved functional outcomes in a traumatic brain injury murine model” (Scientific Reports, 2017)
